Data taken from ChEMBL document CHEMBL2150993, “Substituted thiazoles VII. Synthesis and antitumor activity of certain 2-(substituted amino)-4-phenyl-1,3-thiazole analogs” (2012).
Activity calls are given as the source filed them. The rule behind the calls is not given here.

Tests used:
Format in all cases: functional
[1] = test system: MOLT-4; assay: Growth inhibition of human MOLT4 cells after 48 hrs by cell counting analysis; conditions: at 10 µM
[2] = test system: RXF 393; assay: Growth inhibition of human RXF393 cells after 48 hrs by cell counting analysis; conditions: at 10 µM
[3] = test system: IGROV-1; assay: Growth inhibition of human IGROV1 cells after 48 hrs by cell counting analysis; conditions: at 10 µM
[4] = test system: Malme-3M; assay: Growth inhibition of human MALME-3M cells after 48 hrs by cell counting analysis; conditions: at 10 µM
[5] = test system: PC-3; assay: Growth inhibition of human PC3 cells after 48 hrs by cell counting analysis; conditions: at 10 µM
[6] = test system: HL-60; assay: Growth inhibition of human HL60 cells after 48 hrs by cell counting analysis; conditions: at 10 µM
[7] = test system: SK-MEL-5; assay: Growth inhibition of human SK-MEL-5 cells after 48 hrs by cell counting analysis; conditions: at 10 µM
[8] = test system: CAKI-1; assay: Growth inhibition of human Caki1 cells after 48 hrs by cell counting analysis; conditions: at 10 µM
[9] = Antiproliferative activity against human colon cancer cells after 48 hrs by cell counting analysis; conditions: Cancer cell lines
[10] = test system: T47D; assay: Growth inhibition of human T47D cells after 48 hrs by cell counting analysis; conditions: at 10 µM
[11] = test system: OVCAR-8; assay: Growth inhibition of human OVCAR8 cells after 48 hrs by cell counting analysis; conditions: at 10 µM
[12] = test system: HCT-116; assay: Growth inhibition of human HCT116 cells after 48 hrs by cell counting analysis; conditions: at 10 µM
[13] = test system: NCI-H522; assay: Growth inhibition of human NCI-H522 cells after 48 hrs by cell counting analysis; conditions: at 10 µM
[14] = test system: KM12; assay: Growth inhibition of human KM12 cells after 48 hrs by cell counting analysis; conditions: at 10 µM
[15] = test system: OVCAR-5; assay: Growth inhibition of human OVCAR5 cells after 48 hrs by cell counting analysis; conditions: at 10 µM
[16] = Antiproliferative activity against human melanoma cells after 48 hrs by cell counting analysis
[17] = test system: HOP-92; assay: Growth inhibition of human HOP92 cells after 48 hrs by cell counting analysis; conditions: at 10 µM
[18] = test system: MDA-MB-435; assay: Growth inhibition of human MDA-MB-435 cells after 48 hrs by cell counting analysis; conditions: at 10 µM
[19] = test system: SNB-75; assay: Growth inhibition of human SNB75 cells after 48 hrs by cell counting analysis; conditions: at 10 µM
[20] = test system: SK-MEL-28; assay: Growth inhibition of human SK-MEL-28 cells after 48 hrs by cell counting analysis; conditions: at 10 µM
[21] = test system: MDA-MB-231; assay: Growth inhibition of human MDA-MB-231 cells after 48 hrs by cell counting analysis; conditions: at 10 µM
[22] = test system: SR; assay: Growth inhibition of human SR cells after 48 hrs by cell counting analysis; conditions: at 10 µM
[23] = test system: CCRF-CEM; assay: Growth inhibition of human CCRF-CEM cells after 48 hrs by cell counting analysis; conditions: at 10 µM
[24] = test system: SK-MEL-2; assay: Growth inhibition of human SK-MEL-2 cells after 48 hrs by cell counting analysis; conditions: at 10 µM
[25] = test system: TK-10; assay: Growth inhibition of human TK10 cells after 48 hrs by cell counting analysis
[26] = test system: NCI-H226; assay: Growth inhibition of human NCI-H226 cells after 48 hrs by cell counting analysis; conditions: at 10 µM
[27] = Antiproliferative activity against human non-small cell lung cancer cells after 48 hrs by cell counting analysis; conditions: Cancer cell lines
[28] = test system: UACC-257; assay: Growth inhibition of human UACC257 cells after 48 hrs by cell counting analysis; conditions: at 10 µM
[29] = test system: BT-549; assay: Growth inhibition of human BT549 cells after 48 hrs by cell counting analysis; conditions: at 10 µM
[30] = test system: SK-OV-3; assay: Growth inhibition of human SKOV3 cells after 48 hrs by cell counting analysis; conditions: at 10 µM
[31] = Antiproliferative activity against human leukemia cells after 48 hrs by cell counting analysis
[32] = Growth inhibition of human NCI-322M cells after 48 hrs by cell counting analysis; conditions: at 10 µM
[33] = test system: SN12C; assay: Growth inhibition of human SN12C cells after 48 hrs by cell counting analysis; conditions: at 10 µM
[34] = test system: EKVX; assay: Growth inhibition of human EKVX cells after 48 hrs by cell counting analysis; conditions: at 10 µM
[35] = Antiproliferative activity against human renal cancer cells after 48 hrs by cell counting analysis; conditions: Cancer cell lines
[36] = test system: LOX IMVI; assay: Growth inhibition of human LOXIMVI cells after 48 hrs by cell counting analysis; conditions: at 10 µM
[37] = test system: UO-31; assay: Growth inhibition of human UO31 cells after 48 hrs by cell counting analysis; conditions: at 10 µM
[38] = Antiproliferative activity against human prostate cancer cells after 48 hrs by cell counting analysis; conditions: Cancer cell lines
[39] = test system: A549; assay: Growth inhibition of human A549 cells after 48 hrs by cell counting analysis; conditions: at 10 µM
[40] = test system: M14; assay: Growth inhibition of human M14 cells after 48 hrs by cell counting analysis; conditions: at 10 µM
[41] = test system: K562; assay: Growth inhibition of human K562 cells after 48 hrs by cell counting analysis; conditions: at 10 µM
[42] = test system: MDA-MB-468; assay: Growth inhibition of human MDA-MB-468 cells after 48 hrs by cell counting analysis
[43] = test system: SF-539; assay: Growth inhibition of human SF539 cells after 48 hrs by cell counting analysis; conditions: at 10 µM
[44] = test system: UACC-62; assay: Growth inhibition of human UACC62 cells after 48 hrs by cell counting analysis; conditions: at 10 µM
[45] = test system: HCC 2998; assay: Growth inhibition of human HCC2998 cells after 48 hrs by cell counting analysis; conditions: at 10 µM
[46] = test system: HT-29; assay: Growth inhibition of human HT-29 cells after 48 hrs by cell counting analysis; conditions: at 10 µM
[47] = test system: SF-268; assay: Growth inhibition of human SF268 cells after 48 hrs by cell counting analysis; conditions: at 10 µM
[48] = test system: NCI-H23; assay: Growth inhibition of human NCI-H23 cells after 48 hrs by cell counting analysis
[49] = test system: OVCAR-3; assay: Growth inhibition of human OVCAR3 cells after 48 hrs by cell counting analysis; conditions: at 10 µM
[50] = test system: U-251; assay: Growth inhibition of human U251 cells after 48 hrs by cell counting analysis; conditions: at 10 µM
[51] = Antiproliferative activity against human ovarian cancer cells after 48 hrs by cell counting analysis; conditions: Cancer cell lines
[52] = test system: OVCAR-4; assay: Growth inhibition of human OVCAR4 cells after 48 hrs by cell counting analysis; conditions: at 10 µM
[53] = test system: SW-620; assay: Growth inhibition of human SW620 cells after 48 hrs by cell counting analysis; conditions: at 10 µM
[54] = Antiproliferative activity against human breast cancer cells after 48 hrs by cell counting analysis; conditions: Cancer cell lines
[55] = test system: RPMI-8226; assay: Growth inhibition of human RPMI8226 cells after 48 hrs by cell counting analysis; conditions: at 10 µM
[56] = test system: SNB-19; assay: Growth inhibition of human SNB19 cells after 48 hrs by cell counting analysis; conditions: at 10 µM
[57] = test system: HOP-62; assay: Growth inhibition of human HOP62 cells after 48 hrs by cell counting analysis; conditions: at 10 µM
[58] = test system: SF-295; assay: Growth inhibition of human SF295 cells after 48 hrs by cell counting analysis; conditions: at 10 µM
[59] = test system: HCT-15; assay: Growth inhibition of human HCT15 cells after 48 hrs by cell counting analysis; conditions: at 10 µM
[60] = test system: ACHN; assay: Growth inhibition of human ACHN cells after 48 hrs by cell counting analysis; conditions: at 10 µM
[61] = Growth inhibition of human NCI-ADR-RES cells after 48 hrs by cell counting analysis; conditions: at 10 µM
[62] = Antiproliferative activity against human CNS cancer cells after 48 hrs by cell counting analysis; conditions: Cancer cell lines
[63] = test system: MCF7; assay: Growth inhibition of human MCF7 cells after 48 hrs by cell counting analysis; conditions: at 10 µM
[64] = read-out: LC50 (the source's name)

With `Cc1ccc(-c2csc(NC(=O)CCCl)n2)cc1` the “growth inhibition (GI)” value [1] was 43.3%, the “growth inhibition (GI)” value [2] was 43.8% and the “growth inhibition (GI)” value [3] was 63.1%. For the same compound, the “growth inhibition (GI)” value [4] was 29.1%, the “growth inhibition (GI)” value [5] was 69.5% and the “growth inhibition (GI)” value [6] was 41.4%. The “growth inhibition (GI)” value [7] was 16.6%, the “growth inhibition (GI)” value [8] was 55.6% and the GI50 [9] was 3.2 µM. For the same compound, the TGI [9] was 11.9 µM, the CC50 [9, 64] was 39.2 µM and the “growth inhibition (GI)” value [10] was 55.2%. The “growth inhibition (GI)” value [11] was 60.6%, the “growth inhibition (GI)” value [12] was 46.2% and the “growth inhibition (GI)” value [13] was 41%. For the same compound, the “growth inhibition (GI)” value [14] was 82.4%, the “growth inhibition (GI)” value [15] was 29.3% and the GI50 [16] was 4.2 µM. For the same compound, the TGI [16] was 13.4 µM, the CC50 [16, 64] was 44.3 µM and the “growth inhibition (GI)” value [17] was 50.5%. For the same compound, the “growth inhibition (GI)” value [18] was 36.9%, the “growth inhibition (GI)” value [19] was 34.6% and the “growth inhibition (GI)” value [20] was 31%. For the same compound, the “growth inhibition (GI)” value [21] was 53.5%, the “growth inhibition (GI)” value [22] was 88.5% and the “growth inhibition (GI)” value [23] was 88.3%. The “growth inhibition (GI)” value [24] was 54.2%, the “growth inhibition (GI)” value [25] was “Active” and the “growth inhibition (GI)” value [26] was 22%. The GI50 [27] was 6.3 µM, the TGI [27] was 20.3 µM and the CC50 [27, 64] was 61.5 µM. For the same compound, the “growth inhibition (GI)” value [28] was 41.3%, the “growth inhibition (GI)” value [29] was 72.3% and the “growth inhibition (GI)” value [30] was 63%. The GI50 [31] was 2 µM, the TGI [31] was 21.5 µM and the CC50 [31, 64] was > 100 µM. For the same compound, the “growth inhibition (GI)” value [32] was 55.9%, the “growth inhibition (GI)” value [33] was 33.2% and the “growth inhibition (GI)” value [34] was 50.3%. The GI50 [35] was 2.8 µM, the TGI [35] was 12.5 µM and the CC50 [35, 64] was 39.3 µM. For the same compound, the “growth inhibition (GI)” value [36] was 45.1%, the “growth inhibition (GI)” value [37] was 61.3% and the GI50 [38] was 3.8 µM. For the same compound, the TGI [38] was 16.8 µM, the CC50 [38, 64] was 63.4 µM and the “growth inhibition (GI)” value [39] was 77.3%. The “growth inhibition (GI)” value [40] was 56.1%, the “growth inhibition (GI)” value [41] was 21.1% and the “growth inhibition (GI)” value [42] was “Active”. The “growth inhibition (GI)” value [43] was 25.2%, the “growth inhibition (GI)” value [44] was 41.8% and the “growth inhibition (GI)” value [45] was 22.5%. For the same compound, the “growth inhibition (GI)” value [46] was 21%, the “growth inhibition (GI)” value [47] was 46.3% and the “growth inhibition (GI)” value [48] was “Active”. For the same compound, the “growth inhibition (GI)” value [49] was 45.3%, the “growth inhibition (GI)” value [50] was 48.5% and the GI50 [51] was 4.8 µM. The TGI [51] was 31.3 µM, the CC50 [51, 64] was 61.1 µM and the “growth inhibition (GI)” value [52] was 81.5%. The “growth inhibition (GI)” value [53] was 65.2%, the GI50 [54] was 3.3 µM and the TGI [54] was 32.3 µM. For the same compound, the CC50 [54, 64] was 62.1 µM, the “growth inhibition (GI)” value [55] was 80.9% and the “growth inhibition (GI)” value [56] was 73.1%. For the same compound, the “growth inhibition (GI)” value [57] was 16.2%, the “growth inhibition (GI)” value [58] was 30.2% and the “growth inhibition (GI)” value [59] was 25.9%. For the same compound, the “growth inhibition (GI)” value [60] was 45.1%, the “growth inhibition (GI)” value [61] was 55.8% and the GI50 [62] was 4.8 µM. For the same compound, the TGI [62] was 17.6 µM, the CC50 [62, 64] was 50.2 µM and the “growth inhibition (GI)” value [63] was 65.9%.
